# Measured values from US6548533B2, “Ureido substituted pyrrolidines” (Aventis Pharma Limited, priority 1999, dated 2003).
row,SMILES,melting point
1,"COc1cc(CC(=O)Nc2ccc(C3C(C(=O)O)CCN3C(=O)c3ccccc3)cc2)ccc1NC(=O)Nc1ccccc1C (centres unmarked) [Example 4, 1-Benzoyl-2-(4-{2-[3-methoxy-4-(3-o-tolyl-ureido)-phenyl]-acetylamino}-phenyl)-pyrrolidine-3-carboxylic Acid]",155 °C (dec.)
2,"COc1cc(CC(=O)Nc2ccc(C3CN(Cc4ccccc4)CC3C(=O)O)cc2)ccc1NC(=O)Nc1ccccc1C (centres unmarked) [Example 5, 1-Benzyl-4-(4-{2-[3-methoxy-4-(3-o-tolyl-ureido)-phenyl]-acetylamino}-phenyl)-pyrrolidine-3-carboxylic Acid]",255 °C

# More lines, now with the values ahead:
row,melting point,SMILES
1,242 °C,"COc1cc(CC(=O)Nc2ccc(C3CN(C(C)=O)CC3C(=O)O)cc2)ccc1NC(=O)Nc1ccccc1C (centres unmarked) [Example 1, 1-Acetyl-4-(4-{2-[3-methoxy-4-(3-o-tolyl-ureido)-phenyl]-acetylamino}-phenyl)-pyrrolidine-3-carboxylic Acid]"
2,248 °C,"COc1cc(CC(=O)Nc2ccc(C3CN(C(=O)c4ccccc4)CC3C(=O)O)cc2)ccc1NC(=O)Nc1ccccc1C (centres unmarked) [Example 2, 1-Benzoyl-4-(4-{2-[3-methoxy-4-(3-o-tolyl-ureido)-phenyl]-acetylamino}-phenyl)-pyrrolidine-3-carboxylic Acid]"
3,184 °C,"COc1cc(CC(=O)Nc2ccc(C3CN(C(=O)CCC(=O)O)CC3C(=O)O)cc2)ccc1NC(=O)Nc1ccccc1C (centres unmarked) [Example 3, 1-(3-Carboxy-propionyl)-4-(4-{2-[3-methoxy-4-(3-o-tolyl-ureido)-phenyl]-acetylamino}-phenyl)-pyrrolidine-3-carboxylic Acid]"
